{"source": "the supplement of paper PMC10307832", "assay_in_all_cases": "relative viability (nuclei count vs DMSO), 5 days (fraction); higher = more cells survive", "key": {"[1]": {"compound": "C1CNCCC1C2=CC(=NN2)C3=CC=NC=C3", "procedure,_shortened": "(§1)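 Lung cancer cell lines in 1536-well plates were kept overnight at 37 °C, then pinned with five library-drug doses (not always all listed) spaced by √10 on vehicle-anchored plates. After 5 days without medium change, cells were fixed, permeabilised and Hoechst-stained in one step, imaged at 4×, and nuclei were counted with MetaXpress. Viability is treated-well nuclei divided by vehicle-well nuclei, taken as the median over plates. Plates passed only with control CV below 25% and at least one doubling.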"}, "[2]": {"compound": "C[C@@H](N)c1ccc(C(=O)Nc2ccnc3[nH]ccc23)cc1", "procedure,_shortened": "as §1"}, "Tanzisertib": {"compound": "O[C@H]1CC[C@H](Nc2ncc3nc(Nc4c(F)cc(F)cc4F)n([C@H]4CCOC4)c3n2)CC1 [Tanzisertib]", "procedure,_shortened": "as §1"}, "[3]": {"compound": "C1CNCCC1C2=CC(=NN2)C3=CC=NC=C3 + CC(=O)Nc1cccc(-n2c(=O)n(C3CC3)c(=O)c3c(Nc4ccc(I)cc4F)n(C)c(=O)c(C)c32)c1 [Trametinib] (partner 0.02 µM)", "procedure,_shortened": "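Lung cancer cell lines were seeded in 1536-well plates and dosed by pin tool the next day, with either a single drug or a fixed anchor-drug dose combined with five library-drug doses (not always all listed) spaced in √10 steps. Five days later, one step fixed the cells and stained their nuclei (final 0.05% Triton X-100, 1% formaldehyde, 1 ug/ml Hoechst), and nuclei were counted on 4× images. Relative viability is the nuclei count in treated wells divided by the count in vehicle wells, and each value is the median of duplicate plates.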"}}, "data": [{"cell line": "UMC-11", "values": [{"measurement": "relative viability", "setting": "[1]; 0.08 µM", "result": 0.862}, {"measurement": "relative viability", "setting": "[1]; 0.8 µM", "result": 1.16}, {"measurement": "relative viability", "setting": "[1]; 2.53 µM", "result": 1.01}, {"measurement": "relative viability", "setting": "[1]; 8 µM", "result": 0.992}, {"measurement": "relative viability", "setting": "[2]; 0.04 µM", "result": 0.954}, {"measurement": "relative viability", "setting": "[2]; 0.1265 µM", "result": 1.07}, {"measurement": "relative viability", "setting": "[2]; 0.4 µM", "result": 1.16}, {"measurement": "relative viability", "setting": "[2]; 1.265 µM", "result": 0.712}, {"measurement": "relative viability", "setting": "[2]; 4 µM", "result": 0.784}, {"measurement": "relative viability", "setting": "Tanzisertib; 0.08 µM", "result": 1.09}, {"measurement": "relative viability", "setting": "Tanzisertib; 0.253 µM", "result": 0.973}, {"measurement": "relative viability", "setting": "Tanzisertib; 0.8 µM", "result": 1.01}, {"measurement": "relative viability", "setting": "Tanzisertib; 2.53 µM", "result": 0.987}, {"measurement": "relative viability", "setting": "Tanzisertib; 8 µM", "result": 1.01}, {"measurement": "relative viability", "setting": "[3]; first compound 0.08 µM", "result": 0.554}, {"measurement": "relative viability", "setting": "[3]; first compound 0.8 µM", "result": 0.776}, {"measurement": "relative viability", "setting": "[3]; first compound 2.53 µM", "result": 0.796}, {"measurement": "relative viability", "setting": "[3]; first compound 8 µM", "result": 0.768}]}]}
